Experimental data from US10918629B2, “Method for treating lymphedema” (The Curators of the University of Missouri, priority 2014, dated 2021).
Where “and” joins values, the source holds several entries; their conditions need not be identical. Identical values can stand only once. Entries after “also recorded” stand apart in the source; their conditions may differ.

Assays:
healthy lymphangion = assay: Rescue of valve lock in isolated pressurized lymphangions under elevated pressure; parameters: species or system mouse
From the text: FIG. 1A and FIG. 1B depict single (FIG. 1A) and multiple (FIG. 1B) lymphangion preparations showing measurements of pressure, diameter and valve position. FIG. 1C and FIG. 1D depict 1-valve preparations used for valve closure (FIG. 1C) and back-leak (FIG. 1D) tests. Color coding applies to pressure, diameter & valve traces shown in all subsequent figures; blue=upstream. black=mid segment, red=downstream. Pin and Pout are controlled with a computer-based servo controller; PL is intraluminal pressure measured with a servo-null micropipette inserted through the wall; diameters are measured with computer-based edge detection^(15); valve positions are determined using densitometry windows as shown^(21,22,69,71).
Studies were made of single and multiple lymphangions from mice under hydrostatic conditions simulating those experienced in primary and secondary lymphedema. When a progressive rise in outflow pressure is imposed, simulating the pressure load on the vessel in a dependent extremity, the normal response of the vessel is a myogenic constriction to Pout elevation (arrow, described in detail in ref.^(71)) with continued pumping, such that internal pressure generation slightly exceeds Pout during systole of each contraction cycle (*); as a result the output valve opens briefly in systole, allowing partial ejection. […]

mouse popliteal vessel = assay: Contractile function of isolated lymphatic vessels with impaired contractility
From the text: FIG. 9A, FIG. 9B, FIG. 9C and FIG. 9D depict the effect of norepinephrine (NE) on vessels with impaired contractility. […] FIG. 9C depicts that NE enhanced contractions in 13/14 vessels with impaired contractions and (FIG. 9D) induced >3.5-fold increase in FREQ (contraction frequency) and 2-fold increase in AMP (contraction amplitude) in a subset 8 vessels that had control contractions.
Data has been obtained to support the contention that NE has the potential not only to relieve valve lock (FIG. 3C) but also to enhance pump function. […] It is presumed that NE works by enhancing inotropy under these conditions and that it may be particularly effective in vessels fatigued or in partial pump failure from chronic pressure overload.

[1] = tested on: human mesenteric lymphatic vessels; assay: Isolated pressurized human mesenteric lymphatic vessel segments, response to NE; details: 33 nM NE
Description: Recently, 1-, 2- and 3-valve segments of human mesenteric lymphatic vessels obtained following bariatric surgery were studied and their responses to Pout and/or Pin elevation and NE were tested. These are the first such measurements in isolated pressurized human lymphatics. […] Like rat/mouse vessels, the valves are biased to be open in the absence of a pressure gradient (arrowhead). Valve gating curves or tests for valve lock were unable to be performed because the vessels were too large to be studied on the microscope used with the pressure controller. However, it was encouraging to find that every response tested was similar to those of rat/mouse vessels.

[2] = tested on: dysfunctional lymphatic vessels; assay: Phenylephrine on dysfunctional mouse lymphatic vessel; details: mouse diseased tissue sample, FIG. 18
[3] = tested on: dysfunctional lymphatic vessels; assay: KATP channel inhibitor / L-type calcium channel agonist on diseased mouse tissue sample; details: single agent, FIG. 20
Description: Glibendamide was then applied to a disease mouse tissue sample. […] The combination of glibenclamide and BayK8644 was then evaluated in a diseased mouse tissue sample. […] BayK8644, along with BayR5417 and FPL64176, are exemplary L-type calcium channel agonists.

[4] = subset of 8 vessels that had control contractions

How did the “relief of valve lock” value (healthy lymphangion; pressure remains elevated, dose that counteracts the loss of tone but does not fuse contractions) turn out when `NC[C@H](O)c1ccc(O)c(O)c1` [NE, norepinephrine] was run?
Its value is “relieves valve lock; also recorded: reverses valve lock; also recorded: can be rescued”.

What about the “working range of a lymphangion pumping against an output load” value (healthy lymphangion; prophylactic application, vessel not yet failed) of the same compound?
The value was “can be extended”.

And the “dose-dependent effect on frequency, tone and inotropy” value (mouse popliteal vessel; 10^−8 to 10^−7M, FIG. 9)?
Its value is “increases in frequency, tone and inotropy”.

What about the “effect on contractions and pumping of vessels with impaired contractility” value (mouse popliteal vessel; fatigued or weakly contracting vessels) of the same compound?
The value was “induce tone and spontaneous contractions; also recorded: induced robust contractions that persisted when pressure was elevated; also recorded: restores contraction and pumping; also recorded: induces spontaneous contractions; also recorded: consistent, large-amplitude contractions”.

What about the “likelihood of having spontaneous contractions” value (mouse popliteal vessel; preliminary analysis, FIG. 9C) of the same compound?
The value was “doubles”.

And the “increase in AMP (contraction amplitude)” value (mouse popliteal vessel; [4])?
The value was 2 fold.

What about the “increase in FREQ (contraction frequency)” value (mouse popliteal vessel; [4]) of the same compound?
Its value is 3.5 fold and > 3.5 fold.

What about the “vessels with enhanced contractions” value (mouse popliteal vessel; vessels with impaired contractions, knock-out mouse developing hindlimb edema) of the same compound?
The value was 13/14.

What about the effect on tone [1] of the same compound?
The effect on tone was “increase in tone”.

And the “increase in AMP” value [1]?
Its value is roughly 50%.

And the “increase in FREQ” value [1]?
Its value is roughly 2 fold.

How did the “effect on contraction and pumping” value [2] turn out when `CNC[C@H](O)c1cccc(O)c1` [PE, phenylephrine] was run?
Its value is “restored contraction and pumping; also recorded: improves/restores normal contractions and pumping functions”.

How did the “effect on contractions and pumping functions” value [3] turn out when `COc1ccc(Cl)cc1C(=O)NCCc1ccc(S(=O)(=O)NC(=O)NC2CCCCC2)cc1` [glibenclamide] was run?
Its value is “improves/restores normal contractions and pumping functions”.
